This is an account of results in US9440941B2, “Substituted chroman-6-yloxy-cycloalkanes and their use as pharmaceuticals” (SANOFI, priority 2013, dated 2016).

Where a name gives a salt, the structure may show the parent alone.

The first assay addresses T1, human NCX1 (Homo sapiens, UniProt P32418).
T1 construct: expressed in transfected cells
Nature of the assay: Inhibition of Ca2+ influx into cells (NCX1 reverse mode), FLIPR Fluo-4 assay. The class given is cell-based. As to conditions: at 10 μM; NCX1 reverse mode; IC50 value not determined; read-out: NCX1rv inhibition in % at 10 μM. An outline of the steps: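 CHO cells stably expressing human NCX1, loaded with Fluo-4 AM, preincubated with compound 45 min at 16 °C in pH 7.4 buffer (3.5 mM CaCl2). Reverse mode triggered by 20 µM gramicidin (final); Fluo-4 fluorescence read at 520 nm every 2 s. IC50 from percentage inhibition of max-minus-min fluorescence.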
Regarding `CCSCCNC1CCC(Oc2ccc3c(c2)CCC(c2ccccc2C)O3)CC1` (stereo not shown) [compound 191], the inhibition at 10 µM was 95%.

In the case of `COCCNC1CCC(Oc2ccc3c(c2)CCC(c2ccccc2C)O3)CC1` (stereo not shown) [compound 189], the inhibition at 10 µM was 100%.

Still in this assay, the particulars now being: inhibition of NCX1 in reverse mode (Ca2+ influx into cells); read-out: NCX1rv IC50.
`CCn1nccc1CNC(=O)C1CCC(Oc2ccc3c(c2)CCC(c2cccc(OC)c2F)O3)CC1` (stereo not shown) [compound 296]: the IC50 was determined as 900 nM.

For the molecule “N-((S)-2-Methoxy-1-methyl-ethyl)-4-(2-phenylchroman-6-yloxy)-cyclohexylamine [compound 140]”, the half-inhibitory concentration (IC50) came to 1400 nM.

Regarding `c1ccc(C2CCc3cc(OC4CCC(NCCCC5CCOC5)CC4)ccc3O2)cc1` (stereo not shown) [compound 116], the IC50 came to 600 nM.

As to `COCC(C)(C)CNC1CCC(Oc2ccc3c(c2)CCC(c2ccccc2)O3)CC1` (stereo not shown) [compound 115], the IC50 turned out to be 1000 nM.

`NCC1CCC(Oc2ccc3c(c2)CCC(c2ccccc2)O3)C1` (stereo not shown) [compound 305, hydrochloride]: the IC50 worked out at 1500 nM.

As for `Cc1cccc(C)c1C1CCc2cc(O[C@H]3CC[C@H](NC(=O)CCn4cccn4)CC3)ccc2O1` (relative stereo) [compound 172], the IC50 came to 7100 nM.

For `Cc1n[nH]cc1CN[C@H]1CC[C@H](Oc2ccc3c(c2)CCC(c2ccccc2)O3)CC1` (stereo partly shown) [compound 66], the concentration for half-maximal inhibition (IC50) stood at 400 nM.

Regarding `c1ccc(C2CCc3cc(O[C@H]4CC[C@H](NCc5ccsc5)CC4)ccc3O2)cc1` (relative stereo) [compound 50], the IC50 is 600 nM.

With `O=C(CCn1cncn1)N[C@H]1CC[C@H](Oc2ccc3c(c2)CCC(c2ccccc2)O3)CC1` (relative stereo) [compound 38], the half-inhibitory concentration (IC50) was found to be 400 nM.

Turning to `CC(C)SCCNC1CCC(Oc2ccc3c(c2)CCC(c2ccccc2)O3)CC1` (stereo not shown) [compound 119], the concentration for half-maximal inhibition (IC50) was found to be 1100 nM.

`CCC(C)(O)C(=O)N[C@H]1CC[C@H](Oc2ccc3c(c2)CCC(c2ccccc2F)O3)CC1` (relative stereo) [compound 238]: the concentration for half-maximal inhibition (IC50) is 100 nM.

As to `O=C(CCn1cccn1)N[C@H]1CC[C@H](Oc2ccc3c(c2)CCC(c2ccccc2F)O3)CC1` (single isomer, unassigned) [compound 253], the half-inhibitory concentration (IC50) came to 300 nM.

With `Cc1cc(CC(=O)N[C@H]2CC[C@H](Oc3ccc4c(c3)CCC(c3ccccc3F)O4)CC2)on1` (relative stereo) [compound 249], the IC50 came out at 1100 nM.

With `Cc1nc(CNC2CCC(Oc3ccc4c(c3)CCC(c3ccccc3)O4)CC2)no1` (stereo not shown) [compound 97], the half-inhibitory concentration (IC50) was 500 nM.

For `O=C(CC(F)(F)F)N[C@H]1CC[C@H](Oc2ccc3c(c2)CCC(c2ccccc2F)O3)CC1` (relative stereo) [compound 240], the IC50 was 100 nM.

Turning to `COCCC(=O)N[C@H]1CC[C@H](Oc2ccc3c(c2)CCC(c2ccccc2)O3)CC1` (relative stereo) [compound 30], the half-inhibitory concentration (IC50) was determined as 300 nM.

For `CCC(C)CNC1CCC(Oc2ccc3c(c2)CCC(c2ccccc2)O3)CC1` (stereo not shown) [compound 101], the concentration for half-maximal inhibition (IC50) stood at 900 nM.

For the molecule `OCCNC1CCC(Oc2ccc3c(c2)CCC(c2ccccc2)O3)CC1` (stereo not shown) [compound 15], the IC50 was determined as 200 nM.

Take `O=C(N[C@H]1CC[C@H](Oc2ccc3c(c2)CCC(c2ccccc2)O3)CC1)C1CCC1` (relative stereo) [compound 20]: the IC50 came to 200 nM.

`Fc1ccccc1C1CCc2cc(OC3CCC(NC4CCOCC4)CC3)ccc2O1` (stereo not shown) [compound 231]: the IC50 was determined as 4100 nM.

Regarding “N-(2-Ethylsulfanylethyl)-4-(2-phenylchroman-6-yloxy)-cyclohexylamine [compound 131]”, the IC50 came to 600 nM.

`Cc1cccc(C)c1C1CCc2cc(O[C@H]3CC[C@H](N)CC3)ccc2O1` (relative stereo) [compound 168, hydrochloride]: the concentration for half-maximal inhibition (IC50) amounted to 4000 nM.

As to `O=S1(=O)CCC(NC2CCC(Oc3ccc4c(c3)CCC(c3ccccc3F)O4)CC2)C1` (stereo not shown) [compound 210], the 50% inhibitory concentration (IC50) came to 1100 nM.

For the molecule `CCn1nccc1CNC(=O)C1CCC(Oc2ccc3c(c2)CCC(c2ccccc2)O3)CC1` (single isomer, unassigned; stereoisomer 1) [compound 93, N-(2-Ethyl-2H-pyrazol-3-ylmethyl)-[cis-4-(2-phenylchroman-6-yloxy)]-cyclohexanecarboxamide, stereoisomer 1 (2)], the IC50 worked out at 300 nM.

As for `O=C(NCc1ccno1)C1CCC(Oc2ccc3c(c2Cl)CCC(c2ccccc2)O3)CC1` (stereo not shown) [compound 292], the IC50 is 1900 nM.

In the case of `Cc1n[nH]c(C)c1CC(=O)N[C@H]1CC[C@H](Oc2ccc3c(c2)CCC(c2ccccc2F)O3)CC1` (relative stereo) [compound 235], the IC50 turned out to be 1500 nM.

Regarding `Cc1ccccc1C1CCc2cc(OC3CCC(NC4CC4)CC3)ccc2O1` (stereo not shown) [compound 203], the 50% inhibitory concentration (IC50) was determined as 1500 nM.

As to `Cc1nc(CN(Cc2csc(C)n2)[C@H]2CC[C@H](Oc3ccc4c(c3)CCC(c3ccccc3)O4)CC2)cs1` (stereo partly drawn) [compound 86, N,N-Bis(2-methylthiazol-4-ylmethyl)-[trans-4-(2-phenylchroman-6-yloxy)]-cyclohexylamine], the IC50 amounted to 800 nM.

On to `O=C(N[C@H]1CC[C@H](Oc2ccc3c(c2)CCC(c2ccccc2F)O3)CC1)C1CC1` (relative stereo) [compound 239], for which the IC50 is 100 nM.

Consider `COCC(C)NC1CCC(Oc2ccc3c(c2)CCC(c2ccccc2F)O3)CC1` (stereo not shown) [compound 219], for which the 50% inhibitory concentration (IC50) amounted to 2400 nM.

Consider `c1ccc(C2CCc3cc(O[C@H]4CC[C@H](NCc5cncs5)CC4)ccc3O2)cc1` (relative stereo) [compound 47], for which the 50% inhibitory concentration (IC50) was found to be 400 nM.

Regarding “N-(2-Methoxyethyl)-4-(2-phenylchroman-6-yloxy)-cyclohexylamine [compound 132]”, the half-inhibitory concentration (IC50) is 700 nM.

Take `COCCC(=O)N[C@H]1CC[C@H](Oc2ccc3c(c2)CCC(c2ccccc2F)O3)CC1` (relative stereo) [compound 243]: the half-inhibitory concentration (IC50) is 700 nM.

As to `O=S(=O)(CCc1ccncc1)N[C@H]1CC[C@H](Oc2ccc3c(c2)CC[C@@H](c2ccccc2)O3)CC1` [compound 75], the 50% inhibitory concentration (IC50) is 1000 nM.

As for `Cc1cccc(C)c1C1CCc2cc(OC3CCC(C(=O)NCCO)CC3)ccc2O1` (stereo not shown) [compound 166], the IC50 is 6200 nM.

As to `Cc1ccccc1C1CCc2cc(O[C@H]3CC[C@H](NCC4CCOC4)CC3)ccc2O1` (relative stereo) [compound 154, (Tetrahydrofuran-3-ylmethyl)-[trans-4-(2-o-tolyl-chroman-6-yloxy)-cyclohexyl]-amine], the half-inhibitory concentration (IC50) stood at 2200 nM.

Regarding `Clc1ccc(CN[C@H]2CC[C@H](Oc3ccc4c(c3)CCC(c3ccccc3)O4)CC2)s1` (stereo partly drawn) [compound 69, N-(5-Chloro-thiophen-2-ylmethyl)-[trans-4-(2-phenylchroman-6-yloxy)]-cyclohexylamine], the IC50 was 1300 nM.

For the molecule `CCn1nccc1CNC(=O)C1CCC(Oc2ccc3c(c2)CCC(c2cccc(F)c2C)O3)CC1` (stereo not shown) [compound 283], the IC50 amounted to 600 nM.

With `Cc1c(F)cccc1C1CCc2cc(OC3CCC(C(=O)NC4CCCC4O)CC3)ccc2O1` (single isomer, unassigned; stereoisomer 1) [compound 279, 4-[2-(3-Fluoro-2-methyl-phenyl)chroman-6-yloxy]-N-(2-hydroxycyclopentyl)cyclohexane-carboxamide, stereoisomer 1 (2)], the 50% inhibitory concentration (IC50) is 700 nM.

As for `Fc1ccccc1C1CCc2cc(OC3CCC(NCCN4CCSCC4)CC3)ccc2O1` (stereo not shown) [compound 227], the half-inhibitory concentration (IC50) amounted to 4300 nM.

Turning to `CC(C)SCCNC1CCC(Oc2ccc3c(c2)CCC(c2ccccc2F)O3)CC1` (stereo not shown) [compound 232], the IC50 is 5900 nM.

As for `CCC(C)CCNC1CCC(Oc2ccc3c(c2)CCC(c2ccccc2)O3)CC1` (stereo not shown) [compound 114], the half-inhibitory concentration (IC50) turned out to be 700 nM.

For the molecule “N-(1,3-Dimethylbutyl)-4-(2-phenylchroman-6-yloxy)-cyclohexylamine [compound 141]”, the IC50 turned out to be 1000 nM.

Regarding `O=C(OC1CCC(Oc2ccc3c(c2)CCC(c2ccccc2)O3)CC1)c1ccncc1F` (stereo not shown) [compound 89, 3-Fluoro-isonicotinic acid 4-(2-phenyl-chroman-6-yloxy)-cyclohexyl ester], the 50% inhibitory concentration (IC50) amounted to 400 nM.

Take `Cc1nc(CN[C@H]2CC[C@H](Oc3ccc4c(c3)CCC(c3ccccc3)O4)CC2)cs1` (stereo partly drawn) [compound 59, N-(2-Methylthiazol-4-ylmethyl)-[trans-4-(2-phenylchroman-6-yloxy)]-cyclohexylamine]: the half-maximal inhibitory concentration (IC50) amounted to 500 nM.

Turning to `O=C(NCc1ccno1)C1CCC(Oc2ccc3c(c2)CCC(c2ccccc2)O3)CC1` (stereo not shown) [compound 13], the IC50 was 300 nM.

For the molecule `CCOCCCNC1CCC(Oc2ccc3c(c2)CCC(c2ccccc2)O3)CC1` (stereo not shown) [compound 112], the concentration for half-maximal inhibition (IC50) was 900 nM.

As to `Cc1c(F)cccc1C1CCc2cc(OC3CCC(C(=O)NCC(C)O)CC3)ccc2O1` (stereo not shown) [compound 276], the IC50 was 600 nM.

Regarding `CCCNC1CCC(Oc2ccc3c(c2)CCC(c2ccccc2C)O3)CC1` (stereo not shown) [compound 205], the IC50 was found to be 1500 nM.

`O=C(N[C@H]1CC[C@H](Oc2ccc3c(c2)CCC(c2ccccc2F)O3)CC1)C1CC1(F)F` (relative stereo) [compound 251]: the IC50 turned out to be 5000 nM.

One may read the inhibition as the change of the read-out against control, counted positive when it falls. The IC50 is the point on the concentration scale where inhibition reaches its midpoint.
